# What was measured:
# TGFβR2 = TGFβR2 (Homo sapiens, UniProt P37173); assay: Biochemical TGFβR2 assay (LanthaScreen Europium Kinase Binding Assay); conditions: geometric mean; tracer displacement, five concentrations 1.0-0.0039 μM in duplicate; read-out: TGFBR2 GMean: IC50 (μM) (Biochemical Assay)
# Experimental: The IC50 of certain compounds in this disclosure against TGFβR2 was conducted under contract at Thermo Fisher Scientific, Life Sciences Solutions as part of their SelectScreen™ profiling service. The TGFβR2 assay used the LanthaScreen® Europium Kinase Binding Assay. Binding of an Alexa Fluor® conjugate Tracer 199 (100 nM) to TGFβR2 (5 nM) was detected by addition of a Eu-labeled anti-tag antibody (5 nM) in Kinase Buffer A (50 mM HEPES pH 7.5, 0.01% BRIJ-35, 10 mM MgCl2, 1 mM EGTA) and 1% final DMSO. […] The percent inhibition was calculated from the emission ratio of Alexa Fluor® and Europium as documented by Thermo Fisher (www.thermofisher.com/kinaseprofiling). The IC50 of certain compounds in this disclosure was determined by testing a dilution series of the compound in duplicate at five concentrations (1.0, 0.25, 0.062, 0.015 and 0.0039 μM) by fitting the inhibition data with a sigmoidal curve fit model.
# Table II provides data indicating TGFBR2 biochemical inhibitory activities for exemplary compounds as described herein.
# FLT3 D835Y = target: T1, FLT3 D835Y (Homo sapiens, UniProt P36888, D835Y); assay: Biochemical FLT3 D835Y assay; conditions: geometric mean; assay as in US2017/0267660; read-out: FLT3 D835Y GMean: IC50 (μM) (Biochemical Assay)
# T1 sequence (P36888 27-993 D835Y): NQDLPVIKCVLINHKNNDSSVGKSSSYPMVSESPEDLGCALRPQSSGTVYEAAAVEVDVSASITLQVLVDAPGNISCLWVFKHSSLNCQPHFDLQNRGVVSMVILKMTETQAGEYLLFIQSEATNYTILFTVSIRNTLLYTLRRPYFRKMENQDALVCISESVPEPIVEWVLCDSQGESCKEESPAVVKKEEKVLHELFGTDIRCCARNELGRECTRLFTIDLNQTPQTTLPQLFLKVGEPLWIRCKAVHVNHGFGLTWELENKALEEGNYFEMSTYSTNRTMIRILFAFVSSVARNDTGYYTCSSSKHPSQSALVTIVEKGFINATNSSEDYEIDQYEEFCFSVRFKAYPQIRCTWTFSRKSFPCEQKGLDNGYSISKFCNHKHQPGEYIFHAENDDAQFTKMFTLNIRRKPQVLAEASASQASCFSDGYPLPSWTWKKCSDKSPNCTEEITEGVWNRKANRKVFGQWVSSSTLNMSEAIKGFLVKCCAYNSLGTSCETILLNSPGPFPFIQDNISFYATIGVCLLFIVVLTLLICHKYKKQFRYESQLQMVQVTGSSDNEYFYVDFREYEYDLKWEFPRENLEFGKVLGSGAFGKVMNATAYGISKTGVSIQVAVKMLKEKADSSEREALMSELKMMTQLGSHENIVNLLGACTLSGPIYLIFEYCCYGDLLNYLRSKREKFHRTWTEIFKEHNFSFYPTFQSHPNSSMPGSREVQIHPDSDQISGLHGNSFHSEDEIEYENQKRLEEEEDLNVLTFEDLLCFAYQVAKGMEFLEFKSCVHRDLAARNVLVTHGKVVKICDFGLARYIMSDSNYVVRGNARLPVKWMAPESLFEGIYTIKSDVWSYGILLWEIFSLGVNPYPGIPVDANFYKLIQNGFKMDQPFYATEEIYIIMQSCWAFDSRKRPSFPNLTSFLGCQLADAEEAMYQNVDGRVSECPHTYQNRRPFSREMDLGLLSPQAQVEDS
# Experimental: FLT3 D835Y assays were conducted on certain compounds of this disclosure as described in U.S. Patent Publication No. US2017/0267660.
# Table II provides data indicating FLT3 D835Y biochemical inhibitory activities for exemplary compounds as described herein.
# [1] = system: quizartinib resistance-causing mutants of FLT3-ITD; conditions: all identified quizartinib resistance-causing mutants and other mutant isoforms (Smith et al.); cited from earlier work
# Chain of TGFβR2 (P37173 23-567): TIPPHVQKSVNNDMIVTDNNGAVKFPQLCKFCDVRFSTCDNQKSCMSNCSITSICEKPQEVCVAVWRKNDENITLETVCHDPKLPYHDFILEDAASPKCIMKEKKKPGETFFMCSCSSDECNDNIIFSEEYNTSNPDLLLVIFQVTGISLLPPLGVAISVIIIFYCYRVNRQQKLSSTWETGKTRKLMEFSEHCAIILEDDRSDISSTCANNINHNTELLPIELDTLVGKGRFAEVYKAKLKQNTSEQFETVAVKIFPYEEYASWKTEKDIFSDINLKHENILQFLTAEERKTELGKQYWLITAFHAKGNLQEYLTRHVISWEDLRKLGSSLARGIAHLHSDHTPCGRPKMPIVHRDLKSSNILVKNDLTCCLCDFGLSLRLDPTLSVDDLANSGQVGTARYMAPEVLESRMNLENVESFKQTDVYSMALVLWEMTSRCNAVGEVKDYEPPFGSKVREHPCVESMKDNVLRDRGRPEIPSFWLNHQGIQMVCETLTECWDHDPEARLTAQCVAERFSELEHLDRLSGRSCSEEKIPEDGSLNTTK
SMILES,IC50 (TGFβR2),IC50 (FLT3 D835Y),activity against quizartinib resistance-causing mutants [1]
"CC(C)(C#N)NC(=O)c1cccc(-c2cnc3[nH]c(-c4cnn(C(F)F)c4)c(F)c3c2)n1 [P-004, N-(1-cyano-1-methyl-ethyl)-6-[2-[1-(difluoromethyl)pyrazol-4-yl]-3-fluoro-1H-pyrrolo[2,3-b]pyridin-5-yl]pyridine-2-carboxamide]",0.0001 to 10 µM,0.0001 to 10 µM,
"O=C(Nc1ncc[nH]1)c1cccc(-c2cnc3[nH]c(-c4cnn(C(F)F)c4)cc3c2)n1 [P-016, 6-(2-(1-(difluoromethyl)-1H-pyrazol-4-yl)-1H-pyrrolo[2,3-b]pyridin-5-yl)-N-(1H-imidazol-2-yl)picolinamide]",0.0001 to 10 µM,0.0001 to 10 µM,
"N#CC1(NC(=O)c2cccc(-c3cnc4[nH]c(-c5cnn(C(F)F)c5)cc4c3)n2)CCC1 [P-007, N-(1-cyanocyclobutyl)-6-(2-(1-(difluoromethyl)-1H-pyrazol-4-yl)-1H-pyrrolo[2,3-b]pyridin-5-yl)picolinamide]",0.0001 to 10 µM,0.0001 to 10 µM,
"CN1CC(NC(=O)c2cccc(-c3cnc4[nH]c(-c5cnn(C(F)F)c5)cc4c3)n2)C1 [P-015, 6-(2-(1-(difluoromethyl)-1H-pyrazol-4-yl)-1H-pyrrolo[2,3-b]pyridin-5-yl)-N-(1-methylazetidin-3-yl)picolinamide]",0.0001 to 10 µM,0.0001 to 10 µM,
"O=C(Nc1nnc[nH]1)c1cccc(-c2cnc3[nH]c(-c4cnn(C(F)F)c4)cc3c2)n1 [P-019, 6-(2-(1-(difluoromethyl)-1H-pyrazol-4-yl)-1H-pyrrolo[2,3-b]pyridin-5-yl)-N-(4H-1,2,4-triazol-3-yl)picolinamide]",0.0001 to 10 µM,0.0001 to 10 µM,
"O=C(NCC1(O)CC1)c1cccc(-c2cnc3[nH]c(-c4cnn(C(F)F)c4)cc3c2)n1 [P-012, 6-(2-(1-(difluoromethyl)-1H-pyrazol-4-yl)-1H-pyrrolo[2,3-b]pyridin-5-yl)-N-((1-hydroxycyclopropyl)methyl)picolinamide]",0.0001 to 10 µM,0.0001 to 10 µM,
"N#CC1(CNC(=O)c2cccc(-c3cnc4[nH]c(-c5cnn(C(F)F)c5)cc4c3)n2)CC1 [P-008, N-((1-cyanocyclopropyl)methyl)-6-(2-(1-(difluoromethyl)-1H-pyrazol-4-yl)-1H-pyrrolo[2,3-b]pyridin-5-yl)picolinamide]",0.0001 to 10 µM,0.0001 to 10 µM,
"O=C(NC1CC(O)C1)c1cccc(-c2cnc3[nH]c(-c4cnn(C(F)F)c4)cc3c2)n1 (centres unmarked) [P-009, 6-(2-(1-(difluoromethyl)-1H-pyrazol-4-yl)-1H-pyrrolo[2,3-b]pyridin-5-yl)-N-(3-hydroxycyclobutyl)picolinamide]",0.0001 to 10 µM,0.0001 to 10 µM,
"O=C(Nc1ccn[nH]1)c1cccc(-c2cnc3[nH]c(-c4cnn(C(F)F)c4)cc3c2)n1 [P-018, 6-(2-(1-(difluoromethyl)-1H-pyrazol-4-yl)-1H-pyrrolo[2,3-b]pyridin-5-yl)-N-(1H-pyrazol-5-yl)picolinamide]",0.0001 to 10 µM,0.0001 to 10 µM,
"CC(C)(C#N)NC(=O)c1cc(F)cc(-c2cnc3[nH]c(-c4cnn(C(F)F)c4)cc3c2)n1 [P-024, N-(2-cyanopropan-2-yl)-6-(2-(1-(difluoromethyl)-1H-pyrazol-4-yl)-1H-pyrrolo[2,3-b]pyridin-5-yl)-4-fluoropicolinamide]",0.0001 to 10 µM,0.0001 to 10 µM,
"CC(C)(C#N)NC(=O)c1cccc(-c2cnc3[nH]c(-c4cnn(CC#N)c4)cc3c2)n1 [P-001, 6-(2-(1-(cyanomethyl)-1H-pyrazol-4-yl)-1H-pyrrolo[2,3-b]pyridin-5-yl)-N-(2-cyanopropan-2-yl)picolinamide]",0.0001 to 10 µM,0.0001 to 10 µM,
"CC(C)(C#N)NC(=O)c1cncc(-c2cnc3[nH]c(-c4cnn(C(F)F)c4)cc3c2)n1 [P-021, N-(2-cyanopropan-2-yl)-6-(2-(1-(difluoromethyl)-1H-pyrazol-4-yl)-1H-pyrrolo[2,3-b]pyridin-5-yl)pyrazine-2-carboxamide]",0.0001 to 10 µM,0.0001 to 10 µM,
"N#CC1(NC(=O)c2cccc(-c3cnc4[nH]c(-c5cnn(C(F)F)c5)cc4c3)n2)CC1 [P-006, N-(1-cyanocyclopropyl)-6-(2-(1-(difluoromethyl)-1H-pyrazol-4-yl)-1H-pyrrolo[2,3-b]pyridin-5-yl)picolinamide]",0.0001 to 10 µM,0.0001 to 10 µM,
"O=C(NC1CS(=O)(=O)C1)c1cccc(-c2cnc3[nH]c(-c4cnn(C(F)F)c4)cc3c2)n1 [P-010, 6-(2-(1-(difluoromethyl)-1H-pyrazol-4-yl)-1H-pyrrolo[2,3-b]pyridin-5-yl)-N-(1,1-dioxidothietan-3-yl)picolinamide]",0.0001 to 10 µM,0.0001 to 10 µM,
"O=C(NCC1(O)CCC1)c1cccc(-c2cnc3[nH]c(-c4cnn(C(F)F)c4)cc3c2)n1 [P-013, 6-(2-(1-(difluoromethyl)-1H-pyrazol-4-yl)-1H-pyrrolo[2,3-b]pyridin-5-yl)-N-((1-hydroxycyclobutyl)methyl)picolinamide]",0.0001 to 10 µM,0.0001 to 10 µM,
"O=C(NC1COC1)c1cccc(-c2cnc3[nH]c(-c4cnn(C(F)F)c4)cc3c2)n1 [P-014, 6-(2-(1-(difluoromethyl)-1H-pyrazol-4-yl)-1H-pyrrolo[2,3-b]pyridin-5-yl)-N-(oxetan-3-yl)picolinamide]",0.0001 to 10 µM,0.0001 to 10 µM,
"CC(C)(O)CNC(=O)c1cccc(-c2cnc3[nH]c(-c4cnn(C(F)F)c4)cc3c2)n1 [P-011, 6-(2-(1-(difluoromethyl)-1H-pyrazol-4-yl)-1H-pyrrolo[2,3-b]pyridin-5-yl)-N-(2-hydroxy-2-methylpropyl)picolinamide]",0.0001 to 10 µM,0.0001 to 10 µM,
CNC(=O)c1cc(Oc2ccc(NC(=O)Nc3ccc(Cl)c(C(F)(F)F)c3)cc2)ccn1 [sorafenib],,,ineffective
"CC(C)(C#N)NC(=O)c1cccc(-c2cnc3[nH]c(-c4cnn(C(F)F)c4)c(Br)c3c2)n1 [P-005, 6-[3-bromo-2-[1-(difluoromethyl)pyrazol-4-yl]-1H-pyrrolo[2,3-b]pyridin-5-yl]-N-(1-cyano-1-methyl-ethyl)pyridine-2-carboxamide]",0.0001 to 10 µM,0.0001 to 10 µM,
"O=C(Nc1cnc[nH]1)c1cccc(-c2cnc3[nH]c(-c4cnn(C(F)F)c4)cc3c2)n1 [P-017, 6-(2-(1-(difluoromethyl)-1H-pyrazol-4-yl)-1H-pyrrolo[2,3-b]pyridin-5-yl)-N-(1H-imidazol-5-yl)picolinamide]",0.0001 to 10 µM,0.0001 to 10 µM,
"CC(C)(C#N)NC(=O)c1cccc(-c2cnc3[nH]c(-c4c(F)nn(C(F)F)c4F)c(F)c3c2)n1 [P-003, N-(1-cyano-1-methyl-ethyl)-6-[2-[1-(difluoromethyl)-3,5-difluoro-pyrazol-4-yl]-3-fluoro-1H-pyrrolo[2,3-b]pyridin-5-yl]pyridine-2-carboxamide]",0.0001 to 10 µM,0.0001 to 10 µM,

# — patent US10428067B2, “Compounds and methods for kinase modulation” (Plexxikon Inc., priority 2017, dated 2019)
